# In paper PMC9837035 (Nature Communications, 2023):
# pIC50: −log10 of the molar value.
# Assays:
# [1] = test system: CHD3 and CHD4 occupancy at the BGLT3 gene locus; experiment: ChIP-qPCR with antibodies against CHD3 or CHD4 in HUDEP-2 cells; assay type: cell-based, human; details: HUDEP-2, 1 μM, 4 days
# Experimental: A total of 0.5–1 × 10^6 cells were cross-linked with 1% formaldehyde for 10 min at room temperature and the reaction was quenched with 250 mM glycine. Cross-linked cells were then lysed with buffer 1 (15 mM Tris-HCl (pH 7.5), 60 mM KCl, 15 mM NaCl, 5 mM MgCl2, 0.1 mM EGTA, 300 mM sucrose, […], 1 mM phenylmethanesulfonyl fluoride (PMSF), 0.5% NP40) and incubated on ice for 10 min. After centrifugation, the pellet was re-suspended in buffer 2 (15 mM Tris-HCl (pH 7.5), 60 mM KCl, 15 mM NaCl, 5 mM MgCl2, 0.1 mM EGTA, 1.2 M sucrose, […], 1 mM PMSF). After centrifugation, the pellet was then re-suspended in MNase buffer (50 mM Tris-HCl (pH 7.5), 1 mM CaCl2, 4 mM MgCl2, 320 mM sucrose, 1 mM PMSF) and digested with 100 U of micrococcal nuclease (Takara) at 37 °C for 15 min. […] The samples were analyzed by qPCR. […] ChIP-seq analysis were analyzed Cutadapt (V1.9.1) for QC, FastQC (V0.10.1) for QC assessment, Bowtie (V2.1.0) for mapping, strand cross-correlation (SCC) for ChIP quality assessment, MACS2 for peak calling, and R package ChIPpeakAnno for Peak annotated.
# HUDEP-2 cells = experiment: RNA-seq analysis of HUDEP-2 cells; assay type: cell-based, human
# Experimental: Total RNAs were extracted using an RNeasy Plus Mini Kit (QIAGEN). RNA-seq experiments were performed by GENEWIZ or Rhelixa. Gene Ontology (GO) analysis in Supplementary Fig. 7a, the statistical test was performed by Wallenius in goseq software. In Supplementary Tables 8(1-3), the statistical test (adjp) was determined using multiple comparisons analysis, Benjamini-Hochberg adjusted FDR test of the default of AltAnalyze (Ver. 2.0).
# mice = experiment: Mouse acute toxicity assay, survival; assay type: in vivo; details: intravenous; for Number of alive mice: 2-week observation
# Outline: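 Four-week-old female ICR mice received compounds intravenously in saline with 10% DMSO and 1% Tween 80; body weight and survival monitored.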
# NSD2 (T1150A) = NSD2 (T1150A) (Homo sapiens, UniProt O96028, T1150A)
# EZH2 (Y641F) = EZH2 (Y641F) (Homo sapiens, UniProt Q15910, Y641F); experiment: biochemical
# Sequence of EZH2 (Y641F) (Q15910 whole entry Y641F): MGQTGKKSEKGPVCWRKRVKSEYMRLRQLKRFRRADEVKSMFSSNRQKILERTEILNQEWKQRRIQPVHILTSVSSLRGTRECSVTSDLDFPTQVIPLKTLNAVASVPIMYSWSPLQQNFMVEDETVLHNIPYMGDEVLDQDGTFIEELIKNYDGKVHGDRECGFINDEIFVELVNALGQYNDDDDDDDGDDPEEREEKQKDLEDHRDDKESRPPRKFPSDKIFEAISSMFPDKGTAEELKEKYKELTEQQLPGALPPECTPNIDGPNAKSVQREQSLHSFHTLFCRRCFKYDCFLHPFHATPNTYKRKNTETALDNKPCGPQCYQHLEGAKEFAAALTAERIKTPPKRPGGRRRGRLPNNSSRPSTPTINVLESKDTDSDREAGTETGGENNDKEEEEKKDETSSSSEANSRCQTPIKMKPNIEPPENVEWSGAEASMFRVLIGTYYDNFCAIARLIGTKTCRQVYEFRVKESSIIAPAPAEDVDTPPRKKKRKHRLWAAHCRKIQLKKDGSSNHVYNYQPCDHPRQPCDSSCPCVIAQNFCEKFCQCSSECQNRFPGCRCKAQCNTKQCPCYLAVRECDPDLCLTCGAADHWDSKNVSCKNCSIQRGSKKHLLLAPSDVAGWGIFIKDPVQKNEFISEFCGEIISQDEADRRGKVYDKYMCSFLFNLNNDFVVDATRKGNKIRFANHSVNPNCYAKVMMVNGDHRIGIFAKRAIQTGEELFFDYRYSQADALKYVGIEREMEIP
# Sequence of EZH2 (Y641F) (O75530 whole entry partner): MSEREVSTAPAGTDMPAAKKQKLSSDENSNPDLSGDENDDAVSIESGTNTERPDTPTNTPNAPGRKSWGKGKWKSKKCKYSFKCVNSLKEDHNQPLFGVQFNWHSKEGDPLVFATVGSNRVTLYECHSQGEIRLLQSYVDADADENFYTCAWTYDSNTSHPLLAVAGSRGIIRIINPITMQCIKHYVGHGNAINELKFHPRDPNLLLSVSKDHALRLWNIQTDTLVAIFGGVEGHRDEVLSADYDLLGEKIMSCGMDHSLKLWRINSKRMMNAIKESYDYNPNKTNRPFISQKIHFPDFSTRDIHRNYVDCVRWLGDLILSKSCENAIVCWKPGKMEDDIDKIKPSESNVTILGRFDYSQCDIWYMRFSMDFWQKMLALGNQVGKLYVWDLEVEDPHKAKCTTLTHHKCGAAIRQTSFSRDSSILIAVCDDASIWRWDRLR
# Sequence of EZH2 (Y641F) (Q15022 whole entry partner): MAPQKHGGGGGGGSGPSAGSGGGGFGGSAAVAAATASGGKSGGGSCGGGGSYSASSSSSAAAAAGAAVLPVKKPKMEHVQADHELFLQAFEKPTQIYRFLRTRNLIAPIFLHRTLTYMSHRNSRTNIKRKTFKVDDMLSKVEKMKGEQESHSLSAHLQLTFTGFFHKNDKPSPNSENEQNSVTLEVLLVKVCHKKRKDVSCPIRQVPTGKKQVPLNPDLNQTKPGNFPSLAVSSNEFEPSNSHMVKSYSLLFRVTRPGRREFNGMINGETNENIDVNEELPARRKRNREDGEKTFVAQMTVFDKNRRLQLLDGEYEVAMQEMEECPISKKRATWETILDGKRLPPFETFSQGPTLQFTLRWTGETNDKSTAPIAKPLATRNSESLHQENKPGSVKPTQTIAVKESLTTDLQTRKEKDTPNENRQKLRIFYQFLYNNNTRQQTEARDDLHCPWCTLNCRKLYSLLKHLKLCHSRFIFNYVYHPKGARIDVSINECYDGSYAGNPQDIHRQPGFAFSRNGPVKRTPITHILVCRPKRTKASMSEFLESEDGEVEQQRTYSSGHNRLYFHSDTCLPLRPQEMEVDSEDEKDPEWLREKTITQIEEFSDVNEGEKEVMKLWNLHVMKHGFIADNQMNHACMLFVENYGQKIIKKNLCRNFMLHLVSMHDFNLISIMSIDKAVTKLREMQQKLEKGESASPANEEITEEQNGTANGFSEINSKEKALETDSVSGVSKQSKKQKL
# Sequence of EZH2 (Y641F) (Q09028 whole entry partner): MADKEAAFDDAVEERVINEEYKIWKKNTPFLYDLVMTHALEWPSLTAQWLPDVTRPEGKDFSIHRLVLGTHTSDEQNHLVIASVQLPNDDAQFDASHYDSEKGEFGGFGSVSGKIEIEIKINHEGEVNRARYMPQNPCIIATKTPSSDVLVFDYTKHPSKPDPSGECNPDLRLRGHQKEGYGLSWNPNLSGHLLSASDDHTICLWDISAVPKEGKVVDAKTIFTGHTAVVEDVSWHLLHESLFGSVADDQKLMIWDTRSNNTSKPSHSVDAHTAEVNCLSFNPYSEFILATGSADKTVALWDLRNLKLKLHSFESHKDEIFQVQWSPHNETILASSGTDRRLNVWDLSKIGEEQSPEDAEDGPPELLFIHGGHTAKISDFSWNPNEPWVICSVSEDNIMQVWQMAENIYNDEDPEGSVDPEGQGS
# Sequence of EZH2 (Y641F) (Q6ZN18 whole entry partner): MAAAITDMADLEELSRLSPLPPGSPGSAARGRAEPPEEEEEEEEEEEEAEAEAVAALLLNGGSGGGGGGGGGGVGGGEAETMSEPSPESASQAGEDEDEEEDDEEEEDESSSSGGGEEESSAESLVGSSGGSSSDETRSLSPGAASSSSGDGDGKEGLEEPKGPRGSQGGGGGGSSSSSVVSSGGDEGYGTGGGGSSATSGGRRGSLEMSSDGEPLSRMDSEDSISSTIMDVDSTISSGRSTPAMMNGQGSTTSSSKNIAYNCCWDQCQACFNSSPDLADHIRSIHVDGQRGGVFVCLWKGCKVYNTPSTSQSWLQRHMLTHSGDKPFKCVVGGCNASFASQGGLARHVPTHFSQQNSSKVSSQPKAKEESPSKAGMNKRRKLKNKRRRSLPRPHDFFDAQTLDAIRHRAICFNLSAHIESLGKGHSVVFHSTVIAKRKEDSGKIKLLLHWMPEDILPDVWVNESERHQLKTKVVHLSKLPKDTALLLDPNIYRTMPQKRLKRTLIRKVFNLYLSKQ
# Sequence of NSD2 (T1150A) (O96028 whole entry T1150A): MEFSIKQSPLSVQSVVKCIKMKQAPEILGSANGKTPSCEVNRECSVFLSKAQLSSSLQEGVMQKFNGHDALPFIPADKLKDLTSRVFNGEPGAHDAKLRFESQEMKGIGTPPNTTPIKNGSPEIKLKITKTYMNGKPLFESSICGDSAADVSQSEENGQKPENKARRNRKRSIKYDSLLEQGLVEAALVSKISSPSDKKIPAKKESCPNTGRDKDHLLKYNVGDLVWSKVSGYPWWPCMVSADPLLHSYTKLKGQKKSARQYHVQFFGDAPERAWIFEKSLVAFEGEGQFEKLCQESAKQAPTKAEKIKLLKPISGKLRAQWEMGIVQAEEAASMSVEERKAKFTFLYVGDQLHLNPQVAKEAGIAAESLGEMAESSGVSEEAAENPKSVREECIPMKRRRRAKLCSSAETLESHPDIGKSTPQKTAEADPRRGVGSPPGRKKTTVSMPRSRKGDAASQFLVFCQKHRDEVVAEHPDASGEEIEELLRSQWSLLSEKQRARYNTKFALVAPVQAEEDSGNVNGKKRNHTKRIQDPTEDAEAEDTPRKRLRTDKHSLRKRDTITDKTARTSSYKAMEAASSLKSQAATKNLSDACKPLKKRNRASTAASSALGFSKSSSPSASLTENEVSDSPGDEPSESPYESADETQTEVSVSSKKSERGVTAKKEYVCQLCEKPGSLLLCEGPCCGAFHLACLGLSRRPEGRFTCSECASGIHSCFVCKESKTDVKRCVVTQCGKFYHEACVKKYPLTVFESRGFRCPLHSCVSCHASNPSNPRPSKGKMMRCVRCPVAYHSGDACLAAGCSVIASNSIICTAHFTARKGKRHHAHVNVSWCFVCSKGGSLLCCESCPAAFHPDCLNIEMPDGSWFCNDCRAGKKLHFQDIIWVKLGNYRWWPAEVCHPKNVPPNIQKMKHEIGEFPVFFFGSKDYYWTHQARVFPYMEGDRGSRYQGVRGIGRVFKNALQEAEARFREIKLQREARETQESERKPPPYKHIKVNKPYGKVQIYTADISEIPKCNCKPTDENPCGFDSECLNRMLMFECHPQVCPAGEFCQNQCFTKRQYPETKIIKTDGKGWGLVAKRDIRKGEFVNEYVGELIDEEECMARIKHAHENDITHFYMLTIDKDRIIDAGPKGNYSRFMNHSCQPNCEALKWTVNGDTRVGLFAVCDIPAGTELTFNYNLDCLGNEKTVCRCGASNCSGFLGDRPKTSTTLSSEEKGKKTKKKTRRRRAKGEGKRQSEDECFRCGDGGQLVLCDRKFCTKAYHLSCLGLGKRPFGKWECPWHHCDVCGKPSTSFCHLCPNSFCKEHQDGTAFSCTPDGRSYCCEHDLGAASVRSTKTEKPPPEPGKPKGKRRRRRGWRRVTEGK
compound,measurement,setting,value
Cc1c(C(=O)NC(CCC2CC2)C(=O)Nc2ccc(C#N)cc2)[nH]c2c1C(=O)CC(C)(C)C2 (stereo not shown) [RK-701],occupancy of CHD4 on the BGLT3 gene locus,[1],significantly decreased
same,FoldChange BCL11A,HUDEP-2 cells; HUDEP-2,1.17±0.09
same,FoldChange BGLT3,HUDEP-2 cells; HUDEP-2,3.40±0.34
same,FoldChange CHD3,HUDEP-2 cells; HUDEP-2,0.88±0.02
same,FoldChange CHD4,HUDEP-2 cells; HUDEP-2,1.00±0.02
same,FoldChange DNMT1,HUDEP-2 cells; HUDEP-2,0.97±0.02
same,FoldChange GATA1,HUDEP-2 cells; HUDEP-2,0.97±0.04
same,FoldChange GATAD2A,HUDEP-2 cells; HUDEP-2,0.96±0.03
same,FoldChange GATAD2B,HUDEP-2 cells; HUDEP-2,1.02±0.04
same,FoldChange HBA1,HUDEP-2 cells; HUDEP-2,1.15±0.13
same,FoldChange HBA2,HUDEP-2 cells; HUDEP-2,1.19±0.04
same,FoldChange HBBP1,HUDEP-2 cells; HUDEP-2,0.99±0.02
same,FoldChange HBD,HUDEP-2 cells; HUDEP-2,1.01±0.03
same,FoldChange HBE1,HUDEP-2 cells; HUDEP-2,4.70±0.71
same,FoldChange HBG1,HUDEP-2 cells; HUDEP-2,2.51±0.58
same,FoldChange HBG2,HUDEP-2 cells; HUDEP-2,3.33±0.28
same,FoldChange HBM,HUDEP-2 cells; HUDEP-2,0.96±0.04
same,FoldChange HBQ1,HUDEP-2 cells; HUDEP-2,1.09±0.05
same,FoldChange HBZ,HUDEP-2 cells; HUDEP-2,0.31±0.08
same,FoldChange HDAC1,HUDEP-2 cells; HUDEP-2,0.96±0.03
same,FoldChange HDAC2,HUDEP-2 cells; HUDEP-2,0.95±0.03
same,FoldChange IKZF1,HUDEP-2 cells; HUDEP-2,1.07±0.01
same,FoldChange KLF1,HUDEP-2 cells; HUDEP-2,1.02±0.02
same,FoldChange LDB1,HUDEP-2 cells; HUDEP-2,1.03±0.04
same,FoldChange LIN28B,HUDEP-2 cells; HUDEP-2,0.91±0.07
same,FoldChange LMO2,HUDEP-2 cells; HUDEP-2,1.28±0.04
same,FoldChange MBD2,HUDEP-2 cells; HUDEP-2,1.03±0.02
same,FoldChange MBD3,HUDEP-2 cells; HUDEP-2,0.96±0.02
same,FoldChange MIR26B,HUDEP-2 cells; HUDEP-2,0.96±0.78
same,FoldChange MTA1,HUDEP-2 cells; HUDEP-2,0.92±0.04
same,FoldChange MTA2,HUDEP-2 cells; HUDEP-2,0.95±0.02
same,FoldChange MYB,HUDEP-2 cells; HUDEP-2,0.91±0.01
same,FoldChange NR2C1,HUDEP-2 cells; HUDEP-2,1.11±0.04
same,FoldChange NR2C2,HUDEP-2 cells; HUDEP-2,0.97±0.04
same,FoldChange RBBP4,HUDEP-2 cells; HUDEP-2,0.96±0.03
same,FoldChange RBBP7,HUDEP-2 cells; HUDEP-2,0.98±0.03
same,FoldChange SOX6,HUDEP-2 cells; HUDEP-2,1.70±0.07
same,FoldChange TAL1,HUDEP-2 cells; HUDEP-2,1.12±0.04
same,FoldChange TCF3,HUDEP-2 cells; HUDEP-2,0.92±0.02
same,FoldChange ZBTB7A,HUDEP-2 cells; HUDEP-2,0.98±0.04
same,FoldChange ZFPM1,HUDEP-2 cells; HUDEP-2,0.90±0.09
same,number of genes transcriptionally upregulated,HUDEP-2 cells; HUDEP-2,204 genes
same,FoldChange HBB,"HUDEP-2 cells; HUDEP-2, 1 μM, 4 days",1.13±0.05
same,log2FoldChange CTD-2643I7.1 (BGLT3),"HUDEP-2 cells; HUDEP-2, 1 μM, 4 days",1.72
same,log2FoldChange HBE1,"HUDEP-2 cells; HUDEP-2, 1 μM, 4 days",2.16
same,log2FoldChange HBG1,"HUDEP-2 cells; HUDEP-2, 1 μM, 4 days",1.23
same,log2FoldChange HBG2,"HUDEP-2 cells; HUDEP-2, 1 μM, 4 days",1.73
same,log2FoldChange HBZ,"HUDEP-2 cells; HUDEP-2, 1 μM, 4 days",-1.67
same,Number of alive mice,mice; 12.5 mg/kg,3/3
same,Number of alive mice,mice; 25 mg/kg,3/3
same,Number of alive mice,mice; 50 mg/kg,3/3
same,Number of alive mice,mice; 100 mg/kg,3/3
same,"acute toxicity, survival",mice; mice,survived for two weeks
same,pIC50,NSD2 (T1150A),< 4.00
same,pIC50,EZH2 (Y641F),< 4.00
